Reference: patent publication US9458463B2, “Method for treatment of diabetes by a small molecule inhibitor for GRK5” (MAX-PLANCK-GESELLSCHAFT ZUR FÖRDERUNG DER WISSENSCHAFTEN …, priority 2010, dated 2016)
pIC50: −log10 of the molar value.

Legend:
[1] = test system: 3T3-L1 cells; assay: Cell viability assay (CellTiter-Glo / automated cell number) in 3T3-L1; type: cell-based; conditions: Mus musculus, read-out: Inhibition of cell viability IC50
Description: (§1) Luminescent cell viability assay. For the detection of cell viability, the CellTiter-Glo® Luminescent Cell Viability Assay was used. This test is based on a luciferase reaction to measure the amount of ATP in cells. This correlates directly with the number of cells and their viability because cells lose the ability to synthesize ATP directly after e.g. loss of membrane integrity or a cytotoxic event. The protocol was adapted to 24 well plates and to the different culture conditions resulting in a standardized protocol which is described below. Cell lysis, inhibition of endogenous ATPases and detection of ATP was performed by adding the CellTiter-Glo® Reagent to the culture wells. Per well, 100 μl reagent were mixed with the same volume of proper Medium. Lysing of the cells took place by 10 min incubation at RT and moderate shaking. Three times 50 μl cell lysate was transferred into a white 96 well plate to eliminate stray light, and the bioluminescence was measured.
(§2) In a 96 well dish 10000 cells per well (100 μl) were seed and treated for 72 h. At the end of the treatment, cells were fixed with 4% paraformaldehyde in PBS for 15 minutes, permeabilized with 0.1% triton-X 100 in PBS for 15 minutes and stained with Hoechst 33342 (20 μg/ml in PBS; dilute from 20 mg/ml stock) directly to cells in 100 μl medium in PBS for 30 minutes at 37° C. Stained cells were imaged with a Cellomics ArrayScan VT I automated microscope. Images were analyzed with vHCS Scan Target Activation software v5.1.2 to identify apoptotic cells. Six fields per well of a 96 well plate we re-imaged at 10× magnification. First, cells were identified by their nuclei staining in channel 1 of Cellomics and their amount. Staining intensity was plotted and compared between NT controls and compound treated cells. Finally, data was obtained using vHCS View software v 5.1.2 and the numbers of cells present in the 96 well were identified as “Valid Object Count” whereas the percentage of infection was determined as “% selected”. IC50 values have been calculated accordingly.

[2] = target: T1, full length GRK5 (Homo sapiens, UniProt P34947); assay: GRK5 kinase activity assay, ADP Glo Kinase Assay technology (Promega); type: biochemical; conditions: group II; ADP Glo Kinase Assay (Table 9-B)
T1 construct: 6/2 fold concentrated full length GRK5 (Millipore, #14-714) in reaction buffer; purchased Millipore 14-714
T1 sequence (P34947 whole entry): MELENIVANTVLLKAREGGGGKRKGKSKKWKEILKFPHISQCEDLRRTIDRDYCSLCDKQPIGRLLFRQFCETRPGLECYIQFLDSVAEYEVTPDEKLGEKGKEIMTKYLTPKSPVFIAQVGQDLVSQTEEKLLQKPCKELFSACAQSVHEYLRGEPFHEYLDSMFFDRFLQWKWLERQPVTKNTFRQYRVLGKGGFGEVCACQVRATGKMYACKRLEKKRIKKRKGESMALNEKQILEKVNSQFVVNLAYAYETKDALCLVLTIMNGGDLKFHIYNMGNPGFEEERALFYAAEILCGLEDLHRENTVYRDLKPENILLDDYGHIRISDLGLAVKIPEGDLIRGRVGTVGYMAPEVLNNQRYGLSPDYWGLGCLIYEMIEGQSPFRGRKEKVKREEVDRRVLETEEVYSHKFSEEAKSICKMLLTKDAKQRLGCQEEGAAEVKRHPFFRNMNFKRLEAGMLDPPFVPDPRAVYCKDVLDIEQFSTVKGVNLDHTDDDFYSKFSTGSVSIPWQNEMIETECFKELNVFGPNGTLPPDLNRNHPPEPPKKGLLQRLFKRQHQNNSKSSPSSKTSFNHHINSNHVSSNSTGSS
Method: The maximal compound assay concentration was set to 100 μM, representing the compound assay concentration used in the primary screen.
Increasing concentrations of GRK5 are incubated together with 100 μM ATP in the absence and presence of 10 μM casein in a reaction buffer. Within this incubation non-phosphorylated casein is converted into phosphorylated casein and ATP is converted into ADP. Thereafter nonconverted ATP is digested into AMP by addition of the ADP-Glo™ Reagent. Subsequently the ADP that is produced by GRK5 activity is phosphorylated back to ATP by addition of Promega Kinase Detection Reagent. These ATP levels serve as measure for the GRK5 activity and are quantified by a luciferase/luciferin reaction.
For GRK5 kinase activity assay, the following protocol was used:
The reaction buffer used was composed of: 20 mM MES pH 6.0, 1 mM DTT, 10 mM MgCl2, 0.01% Tween20 and the reaction volume was 6 μL.
Firstly 4 μL 6/4 fold concentrated substrate and 6/4 fold concentrated ATP in 1 fold concentrated reaction buffer are added to each well of the assay plate. Subsequently 67 nL […] concentrated test compound in 100% DMSO are added to each well except to C− and C+ wells using pin tool. Then 67 nL 100% DMSO are pipetted to C− (no kinase, no compound) and C+ (no compound) wells using pin-tool and 2 μL reaction buffer are added to C− wells. […] After incubation for 120 min. at room temperature 6 μL ADP-Glo™ Reagent (ADP Glo™ Kinase Assay Kit: Promega, V9101) are added to each well to stop the kinase reaction and deplete the unconsumed ATP. After a second incubation for 40 min. at room temperature 12 μL of Kinase Detection Reagent are added to convert ADP to ATP and start luciferase/luciferin reaction for detection of ATP. […] Finally, after incubation for 40 min at room temperature the luminescence intensity was measured.
The activity of the compounds was classified according to IC50 for binding sites of Grk5 into the following ranges:
8800 Customer compounds were screened for their ability to inhibit the enzymatic activity of GRK5. Screening was performed using the ADP Glo™ Kinase Assay technology (Promega). The small molecular weight compounds were delivered at 10 mM stock concentration and were tested at a final assay concentration of 100 μM.
IC50 values were determined in triplicates at 12 concentrations with a dilution factor of three. Triplicates were measured on three different assay plates. The maximal compound assay concentration was set to 100 μM representing the compound assay concentration used in the primary screen. A larger maximal compound assay concentration could not be achieved since the maximal compound concentration on the compound plates was 10 mM (>1% DMSO concentration in the assay).

[3] = test system: HepG2 cells; assay: Cell viability assay (CellTiter-Glo / automated cell number) in HepG2; type: cell-based; conditions: Homo sapiens, read-out: Inhibition of cell viability IC50
Description: as §1, §2

[4] = test system: beta TC6 cells; assay: Cell viability assay (CellTiter-Glo / automated cell number) in beta TC6; type: cell-based; conditions: Mus musculus, read-out: Inhibition of cell viability IC50
Description: as §1, §2

[5] = test system: C2C12 cells; assay: Cell viability assay (CellTiter-Glo / automated cell number) in C2C12; type: cell-based; conditions: Mus musculus, read-out: Inhibition of cell viability IC50
Description: as §1, §2

Row | pIC50 [2] | pIC50 [3] | SMILES | pIC50 [1] | pIC50 [4] | pIC50 [5]
1 | 6.00 to 7.00 | 6.57 | CC[C@@H](NC(=O)c1ccc2c(c1)/C(=C/c1[nH]c(C)c(C(=O)NCCN3CCCC3)c1C)C(=O)N2)c1ccccc1 [II.6, (3Z)-3-({3,5-dimethyl-4-[(2-pyrrolidin-1-ylethyl)carbamoyl]-1H-pyrrol-2-yl}methylene)-2-oxo-N-[(1R)-1-phenylpropyl]indoline-5-carboxamide] | 5.77 | 6.38 | 5.83
2 | 5.00 to 5.70 | 6.16 | CC[C@@H](NC(=O)c1ccc2c(c1)/C(=C/c1[nH]c(C)c(C(=O)N3CCN(C)CC3)c1C)C(=O)N2)c1ccccc1 [II.7, (3Z)-3-({3,5-dimethyl-4-[(4-methylpiperazin-1-yl)carbonyl]-1H-pyrrol-2-yl}methylene)-2-oxo-N-[(1R)-1-phenylpropyl]indoline-5-carboxamide] | 5.97 | 5.92 | 5.88
3 | 6.00 to 7.00 | 5.80 | CCC(NC(=O)c1ccc2c(c1)/C(=C/c1[nH]c(C)c(C(=O)NCCN3CCCC3)c1C)C(=O)N2)c1ccc(Cl)cc1 (stereo not shown) [II.13, (3Z)-N-[1-(4-chlorophenyl)propyl]-3-({3,5-dimethyl-4-[(2-pyrrolidin-1-ylethyl)carbamoyl]-1H-pyrrol-2-yl}methylene)-2-oxoindoline-5-carboxamide] | < 5.00 | 5.79 | 5.34
4 | 6.00 to 7.00 | 6.14 | Cc1[nH]c(/C=C2\C(=O)Nc3ccc(C(=O)N[C@H](C)c4ccccc4)cc32)c(C)c1C(=O)N1CCCCC1 [II.14, (3Z)-3-{[3,5-dimethyl-4-(piperidin-1-ylcarbonyl)-1H-pyrrol-2-yl]methylene}-2-oxo-N-[(1R)-1-phenylethyl]indoline-5-carboxamide] | 6.12 | 5.92 | 5.85
5 | 5.70 to 6.00 | 6.27 | Cc1[nH]c(/C=C2\C(=O)Nc3ccc(C(=O)N[C@H](C)c4ccccc4)cc32)c(C)c1C(=O)N1CCN(C)CC1 [II.15, (3Z)-3-({3,5-dimethyl-4-[(4-methylpiperazin-1-yl)carbonyl]-1H-pyrrol-2-yl}methylene)-2-oxo-N-[(1R)-1-phenylethyl]indoline-5-carboxamide] | 5.95 | 5.77 | 5.63
6 | 5.00 to 5.70 | 5.79 | COc1ccc([C@@H](C)NC(=O)c2ccc3c(c2)/C(=C/c2[nH]c(C)c(C(=O)N4CCN(C)CC4)c2C)C(=O)N3)cc1 [II.21, (3Z)-3-({3,5-dimethyl-4-[(4-methylpiperazin-1-yl)carbonyl]-1H-pyrrol-2-yl}methylene)-N-[(1R)-1-(4-methoxyphenyl)ethyl]-2-oxoindoline-5-carboxamide] | 5.88 | 5.39 | 5.01
7 |  | 6.43 | CCN(CC)CCNC(=O)c1c(C)[nH]c(/C=C2\C(=O)Nc3ccc(C(=O)N[C@H](C)c4ccccc4)cc32)c1C [II.59, (3Z)-3-[(4-{[2-(diethylamino)ethyl]carbamoyl}-3,5-dimethyl-1H-pyrrol-2-yl)methylene]-2-oxo-N-[(1R)-1-phenylethyl]indoline-5-carboxamide] | 6.20 | 6.15 | 5.95
8 |  | 5.64 | CCN(CC)CCNC(=O)c1c(C)[nH]c(/C=C2\C(=O)Nc3ccc(C(=O)N[C@@H](C)c4ccccc4)cc32)c1C [II.60, (3Z)-3-[(4-{[2-(diethylamino)ethyl]carbamoyl}-3,5-dimethyl-1H-pyrrol-2-yl)methylene]-2-oxo-N-[(1S)-1-phenylethyl]indoline-5-carboxamide] | 5.70 | 5.66 | 5.39
9 | > 7.00 | 6.48 | CC[C@@H](NC(=O)c1ccc2c(c1)/C(=C/c1[nH]c(C)c(C(=O)NCCN(CC)CC)c1C)C(=O)N2)c1ccccc1 [II.61, (3Z)-3-[(4-{[2-(diethylamino)ethyl]carbamoyl}-3,5-dimethyl-1H-pyrrol-2-yl)methylene]-2-oxo-N-[(1R)-1-phenylpropyl]indoline-5-carboxamide] | 6.22 | 6.36 | 5.83
10 | > 7.00 | 5.35 | CC[C@@H](NC(=O)c1ccc2c(c1)/C(=C/Nc1ccc(CN3CCCCC3)cc1)C(=O)N2)c1ccccc1 [II.69, (3Z)-2-oxo-N-[(1R)-1-phenylpropyl]-3-({[4-(piperidin-1-ylmethyl)phenyl]amino}methylene)-indoline-5-carboxamide] | < 5.00 | < 5.00 | 5.25
11 | > 7.00 | 5.24 | C[C@@H](NC(=O)c1ccc2c(c1)/C(=C/Nc1ccc(CN3CCCCC3)cc1)C(=O)N2)c1ccccc1 [II.78, (3Z)-2-oxo-N-[(1R)-1-phenylethyl]-3-({[4-(piperidin-1-ylmethyl)phenyl]amino}methylene)indoline-5-carboxamide] | < 5.00 | < 5.00 | < 5.00
12 | > 7.00 | 5.68 | COc1cccc([C@@H](C)NC(=O)c2ccc3c(c2)/C(=C/Nc2ccc(CN4CCCCC4)cc2)C(=O)N3)c1 [II.79, (3Z)-N-[(1R)-1-(3-methoxyphenyl)ethyl]-2-oxo-3-({[4-(piperidin-1-ylmethyl)phenyl]amino}methylene)indoline-5-carboxamide] | < 5.00 | 5.69 | < 5.00
13 | > 7.00 | 5.41 | C[C@@H](NC(=O)c1ccc2c(c1)/C(=C/Nc1ccc(CN3CCCCC3)cc1)C(=O)N2)c1cccc(Cl)c1 [II.80, (3Z)-N-[(1R)-1-(3-chlorophenyl)ethyl]-2-oxo-3-({[4-(piperidin-1-ylmethyl)phenyl]amino}methylene)indoline-5-carboxamide] | < 5.00 | 6.33 | < 5.00
14 | > 7.00 | 5.73 | CCC(NC(=O)c1ccc2c(c1)/C(=C/c1[nH]c(C)c(CCC(=O)NCCN(CC)CC)c1C)C(=O)N2)c1cccc(Cl)c1 (stereo not shown) [II.135, (3Z)-3-{4-[2-(2-diethylamino-ethylcarbamoyl)-ethyl]-3,5-dimethyl-1H-pyrrol-2-ylmethyiene}-2-oxo-2,3-dihydro-1H-indole-5-carboxylic acid [1-(3-chloro-phenyl)-propyl]-amide] | 5.87 | 5.81 | < 5.00
15 | 6.00 to 7.00 | < 5.00 | CCOC(=O)[C@H](C)NC(=O)c1c(C)[nH]c(/C=C2\C(=O)Nc3ccc(C(=O)O)cc32)c1C [II.136] | 5.57 | < 5.00 | < 5.00
